“And” between values parts separate entries of the source, which are not always exact repeats. Identical values can stand only once. The source made the active and inactive calls.
Columns and labels:
HEK293 [1] = assay: cells; assay type: functional, cell-based; conditions: Homo sapiens
HEK293 [2] = assay: NOD2 signaling inhibitors in MDP-stimulated cells, cell-based, uHTS, luminescence (AID 2001); assay type: functional; conditions: Homo sapiens
HEK293 [3] = assay: cells; assay type: functional, cell-based; conditions: Homo sapiens; remark: listed apart in the source
Protein RecA = molecular target: T1, Protein RecA (Mycobacterium tuberculosis, UniProt P9WHJ3); assay: Fluorescence Cell-Free Homogeneous Dose Retest to Identify Inhibitors of RecA-Intein Splicing Activity. [Related pubchem assays (depositor defined):AID2097, AID2223, AID489010, AID492950]; assay type: functional
T1 sequence (P9WHJ3 whole entry): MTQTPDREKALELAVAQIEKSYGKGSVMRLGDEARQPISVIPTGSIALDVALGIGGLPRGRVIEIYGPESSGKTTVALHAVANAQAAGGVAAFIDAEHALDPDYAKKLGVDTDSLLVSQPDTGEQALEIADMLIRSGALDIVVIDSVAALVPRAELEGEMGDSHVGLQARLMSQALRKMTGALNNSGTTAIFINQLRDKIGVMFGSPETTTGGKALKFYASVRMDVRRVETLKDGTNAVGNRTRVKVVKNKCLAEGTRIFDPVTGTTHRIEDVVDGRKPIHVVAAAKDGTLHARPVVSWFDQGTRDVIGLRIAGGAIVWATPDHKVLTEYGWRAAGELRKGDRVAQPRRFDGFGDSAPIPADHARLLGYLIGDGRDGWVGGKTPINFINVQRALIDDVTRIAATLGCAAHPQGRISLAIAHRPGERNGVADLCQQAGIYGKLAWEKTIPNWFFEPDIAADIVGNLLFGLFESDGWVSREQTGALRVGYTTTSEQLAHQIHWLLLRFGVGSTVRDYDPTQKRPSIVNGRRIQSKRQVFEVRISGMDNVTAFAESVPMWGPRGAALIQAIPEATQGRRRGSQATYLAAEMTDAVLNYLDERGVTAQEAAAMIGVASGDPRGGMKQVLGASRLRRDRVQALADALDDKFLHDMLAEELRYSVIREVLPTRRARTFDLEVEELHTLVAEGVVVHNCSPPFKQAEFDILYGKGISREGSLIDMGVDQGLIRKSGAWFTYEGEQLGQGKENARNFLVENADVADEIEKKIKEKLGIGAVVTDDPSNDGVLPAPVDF

[4] = molecular target: T2, Replicative DNA helicase DnaB (Mycobacterium tuberculosis, UniProt P9WMR3); assay: DnaB intein splicing inhibitors, dose response, biochemical, cell-free fluorescence (AID 449749); assay type: functional
T2 sequence (P9WMR3 whole entry): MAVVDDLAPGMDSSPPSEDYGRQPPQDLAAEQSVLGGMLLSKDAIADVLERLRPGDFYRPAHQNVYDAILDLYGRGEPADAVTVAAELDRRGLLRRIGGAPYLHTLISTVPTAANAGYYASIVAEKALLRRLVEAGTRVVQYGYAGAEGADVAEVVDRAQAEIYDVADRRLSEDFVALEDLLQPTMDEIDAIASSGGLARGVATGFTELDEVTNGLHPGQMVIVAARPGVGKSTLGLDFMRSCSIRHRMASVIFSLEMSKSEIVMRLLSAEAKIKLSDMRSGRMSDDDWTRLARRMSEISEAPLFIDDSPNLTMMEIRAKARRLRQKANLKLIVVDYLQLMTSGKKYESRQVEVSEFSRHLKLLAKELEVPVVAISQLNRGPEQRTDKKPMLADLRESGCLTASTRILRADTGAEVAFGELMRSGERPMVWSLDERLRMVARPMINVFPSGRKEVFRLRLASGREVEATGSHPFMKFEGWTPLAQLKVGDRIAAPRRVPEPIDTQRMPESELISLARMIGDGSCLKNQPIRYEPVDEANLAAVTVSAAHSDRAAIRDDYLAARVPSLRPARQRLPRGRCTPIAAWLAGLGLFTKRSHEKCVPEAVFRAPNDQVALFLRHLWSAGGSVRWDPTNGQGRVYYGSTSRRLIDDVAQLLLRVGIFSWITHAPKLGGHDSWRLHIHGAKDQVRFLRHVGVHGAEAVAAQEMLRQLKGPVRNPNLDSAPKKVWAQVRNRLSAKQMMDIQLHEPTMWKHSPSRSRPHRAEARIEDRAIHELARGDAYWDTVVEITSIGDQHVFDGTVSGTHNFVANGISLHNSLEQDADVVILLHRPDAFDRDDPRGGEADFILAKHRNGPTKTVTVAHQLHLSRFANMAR

[5] = molecular target: T3, Heat shock factor protein 1 (Mus musculus, UniProt P38532); assay: enhancement of HSF1-driven luciferase signal – cell-based, NIH3T3, luminescence, dose retest, confirmation (AID 435004); assay type: functional;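 note: stress induced by proteasome inhibitor MG132 added 30 min after compound; luciferase reporter driven by HSF1 response element in NIH3T3 cells; actives raise luminescence as potentiators of the MG132 stress response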
T3 sequence (P38532 whole entry): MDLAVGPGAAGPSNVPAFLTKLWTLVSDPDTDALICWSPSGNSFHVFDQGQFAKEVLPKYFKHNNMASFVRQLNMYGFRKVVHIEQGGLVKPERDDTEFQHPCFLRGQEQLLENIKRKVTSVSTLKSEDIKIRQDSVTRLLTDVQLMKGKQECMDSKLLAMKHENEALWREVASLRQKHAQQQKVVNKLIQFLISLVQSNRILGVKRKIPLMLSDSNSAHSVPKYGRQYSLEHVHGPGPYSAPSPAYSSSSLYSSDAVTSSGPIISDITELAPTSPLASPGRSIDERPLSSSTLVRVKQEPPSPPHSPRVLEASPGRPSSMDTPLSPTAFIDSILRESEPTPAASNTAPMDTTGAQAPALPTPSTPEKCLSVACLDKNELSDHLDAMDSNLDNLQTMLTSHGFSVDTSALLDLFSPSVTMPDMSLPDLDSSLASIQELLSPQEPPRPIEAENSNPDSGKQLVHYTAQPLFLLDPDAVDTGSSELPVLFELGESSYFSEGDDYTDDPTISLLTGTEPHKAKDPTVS

[6] = molecular target: Nucleotide-binding oligomerization domain-containing protein 2 (Homo sapiens, UniProt Q9HC29); assay: inhibition of NOD2-driven NF-kB reporter – cell-based, luminescence, uHTS, HEK293 (AID 1566); assay type: functional
Nucleotide-binding oligomerization domain-containing protein 2, sequence (Q9HC29 whole entry, the tested form may be a part): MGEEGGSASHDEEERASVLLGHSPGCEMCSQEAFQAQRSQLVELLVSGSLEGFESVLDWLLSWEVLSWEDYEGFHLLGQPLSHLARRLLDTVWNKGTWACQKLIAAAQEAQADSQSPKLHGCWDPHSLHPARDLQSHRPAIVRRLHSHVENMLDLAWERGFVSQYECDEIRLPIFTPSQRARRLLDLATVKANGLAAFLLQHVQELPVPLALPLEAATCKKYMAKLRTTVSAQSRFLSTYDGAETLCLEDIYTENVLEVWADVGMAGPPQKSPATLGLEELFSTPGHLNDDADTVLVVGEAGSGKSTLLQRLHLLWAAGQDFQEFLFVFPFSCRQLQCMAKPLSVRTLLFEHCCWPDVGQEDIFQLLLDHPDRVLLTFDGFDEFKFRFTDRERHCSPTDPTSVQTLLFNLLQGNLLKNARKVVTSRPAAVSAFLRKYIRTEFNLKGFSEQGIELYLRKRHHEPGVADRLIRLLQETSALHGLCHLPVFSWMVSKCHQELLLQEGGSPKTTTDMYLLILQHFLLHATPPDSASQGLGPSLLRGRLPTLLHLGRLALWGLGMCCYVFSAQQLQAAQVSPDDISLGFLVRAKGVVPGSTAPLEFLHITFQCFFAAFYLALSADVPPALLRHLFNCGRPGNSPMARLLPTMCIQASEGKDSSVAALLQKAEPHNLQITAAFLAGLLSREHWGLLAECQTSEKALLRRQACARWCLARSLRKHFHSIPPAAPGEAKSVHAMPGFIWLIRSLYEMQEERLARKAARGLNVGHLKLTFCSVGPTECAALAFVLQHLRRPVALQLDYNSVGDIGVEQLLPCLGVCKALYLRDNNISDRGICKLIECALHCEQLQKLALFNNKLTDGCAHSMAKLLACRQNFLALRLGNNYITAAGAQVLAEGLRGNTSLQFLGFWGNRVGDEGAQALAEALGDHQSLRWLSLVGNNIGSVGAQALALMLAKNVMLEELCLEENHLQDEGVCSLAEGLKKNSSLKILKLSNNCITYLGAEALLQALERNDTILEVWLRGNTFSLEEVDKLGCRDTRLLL

HEK293 [7] = assay: inhibition of NOD1-driven NF-kB reporter – cell-based, luminescence, uHTS, primary screen (AID 1578); assay type: functional; conditions: Homo sapiens
[8] = molecular target: T4, Microphthalmia-associated transcription factor (Homo sapiens, UniProt O75030); assay: reducers of TRPM1 reporter luminescence, concentration series – cell-based, SK-MEL-5, cherry-picked, set 3, MITF inhibitor project, dose response (AID 493073); assay type: functional;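 note: SK-MEL-5 melanoma cells with luciferase driven by the MITF target TRPM1 promoter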
T4 sequence (O75030 whole entry): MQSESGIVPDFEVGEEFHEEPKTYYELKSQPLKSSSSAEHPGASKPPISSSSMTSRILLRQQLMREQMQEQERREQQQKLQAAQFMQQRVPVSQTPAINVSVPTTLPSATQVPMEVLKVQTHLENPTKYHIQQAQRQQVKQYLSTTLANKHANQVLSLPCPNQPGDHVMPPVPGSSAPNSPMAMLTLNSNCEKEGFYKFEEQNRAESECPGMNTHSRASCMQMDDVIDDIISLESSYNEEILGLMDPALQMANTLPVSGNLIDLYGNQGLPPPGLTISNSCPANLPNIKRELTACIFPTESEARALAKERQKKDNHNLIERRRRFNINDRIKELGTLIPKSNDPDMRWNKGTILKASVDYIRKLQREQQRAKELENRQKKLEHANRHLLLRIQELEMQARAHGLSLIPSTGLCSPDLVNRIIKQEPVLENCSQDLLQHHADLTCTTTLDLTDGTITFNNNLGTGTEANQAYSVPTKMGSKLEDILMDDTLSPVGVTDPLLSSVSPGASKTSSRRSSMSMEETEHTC

HEK293 [9] = assay: cells; assay type: functional, cell-based; conditions: Homo sapiens; remark: listed apart in the source
[10] = viability loss of HPDE-C7K cells – cell-based, fluorescence, HTS, primary screen (AID 431); assay type: functional; conditions: Homo sapiens
[11] = HPDE-C7 pancreatic duct cell viability loss – fluorescence, HTS (AID 430); assay type: functional, cell-based; conditions: Homo sapiens
[12] = molecular target: T5, Voltage-gated N-type calcium channel alpha-1B subunit/Amyloid beta A4 precursor protein-binding family A member 1 (Homo sapiens, UniProt Q00975+Q02410); assay type: protein assay
T5 sequence (Q00975 whole entry): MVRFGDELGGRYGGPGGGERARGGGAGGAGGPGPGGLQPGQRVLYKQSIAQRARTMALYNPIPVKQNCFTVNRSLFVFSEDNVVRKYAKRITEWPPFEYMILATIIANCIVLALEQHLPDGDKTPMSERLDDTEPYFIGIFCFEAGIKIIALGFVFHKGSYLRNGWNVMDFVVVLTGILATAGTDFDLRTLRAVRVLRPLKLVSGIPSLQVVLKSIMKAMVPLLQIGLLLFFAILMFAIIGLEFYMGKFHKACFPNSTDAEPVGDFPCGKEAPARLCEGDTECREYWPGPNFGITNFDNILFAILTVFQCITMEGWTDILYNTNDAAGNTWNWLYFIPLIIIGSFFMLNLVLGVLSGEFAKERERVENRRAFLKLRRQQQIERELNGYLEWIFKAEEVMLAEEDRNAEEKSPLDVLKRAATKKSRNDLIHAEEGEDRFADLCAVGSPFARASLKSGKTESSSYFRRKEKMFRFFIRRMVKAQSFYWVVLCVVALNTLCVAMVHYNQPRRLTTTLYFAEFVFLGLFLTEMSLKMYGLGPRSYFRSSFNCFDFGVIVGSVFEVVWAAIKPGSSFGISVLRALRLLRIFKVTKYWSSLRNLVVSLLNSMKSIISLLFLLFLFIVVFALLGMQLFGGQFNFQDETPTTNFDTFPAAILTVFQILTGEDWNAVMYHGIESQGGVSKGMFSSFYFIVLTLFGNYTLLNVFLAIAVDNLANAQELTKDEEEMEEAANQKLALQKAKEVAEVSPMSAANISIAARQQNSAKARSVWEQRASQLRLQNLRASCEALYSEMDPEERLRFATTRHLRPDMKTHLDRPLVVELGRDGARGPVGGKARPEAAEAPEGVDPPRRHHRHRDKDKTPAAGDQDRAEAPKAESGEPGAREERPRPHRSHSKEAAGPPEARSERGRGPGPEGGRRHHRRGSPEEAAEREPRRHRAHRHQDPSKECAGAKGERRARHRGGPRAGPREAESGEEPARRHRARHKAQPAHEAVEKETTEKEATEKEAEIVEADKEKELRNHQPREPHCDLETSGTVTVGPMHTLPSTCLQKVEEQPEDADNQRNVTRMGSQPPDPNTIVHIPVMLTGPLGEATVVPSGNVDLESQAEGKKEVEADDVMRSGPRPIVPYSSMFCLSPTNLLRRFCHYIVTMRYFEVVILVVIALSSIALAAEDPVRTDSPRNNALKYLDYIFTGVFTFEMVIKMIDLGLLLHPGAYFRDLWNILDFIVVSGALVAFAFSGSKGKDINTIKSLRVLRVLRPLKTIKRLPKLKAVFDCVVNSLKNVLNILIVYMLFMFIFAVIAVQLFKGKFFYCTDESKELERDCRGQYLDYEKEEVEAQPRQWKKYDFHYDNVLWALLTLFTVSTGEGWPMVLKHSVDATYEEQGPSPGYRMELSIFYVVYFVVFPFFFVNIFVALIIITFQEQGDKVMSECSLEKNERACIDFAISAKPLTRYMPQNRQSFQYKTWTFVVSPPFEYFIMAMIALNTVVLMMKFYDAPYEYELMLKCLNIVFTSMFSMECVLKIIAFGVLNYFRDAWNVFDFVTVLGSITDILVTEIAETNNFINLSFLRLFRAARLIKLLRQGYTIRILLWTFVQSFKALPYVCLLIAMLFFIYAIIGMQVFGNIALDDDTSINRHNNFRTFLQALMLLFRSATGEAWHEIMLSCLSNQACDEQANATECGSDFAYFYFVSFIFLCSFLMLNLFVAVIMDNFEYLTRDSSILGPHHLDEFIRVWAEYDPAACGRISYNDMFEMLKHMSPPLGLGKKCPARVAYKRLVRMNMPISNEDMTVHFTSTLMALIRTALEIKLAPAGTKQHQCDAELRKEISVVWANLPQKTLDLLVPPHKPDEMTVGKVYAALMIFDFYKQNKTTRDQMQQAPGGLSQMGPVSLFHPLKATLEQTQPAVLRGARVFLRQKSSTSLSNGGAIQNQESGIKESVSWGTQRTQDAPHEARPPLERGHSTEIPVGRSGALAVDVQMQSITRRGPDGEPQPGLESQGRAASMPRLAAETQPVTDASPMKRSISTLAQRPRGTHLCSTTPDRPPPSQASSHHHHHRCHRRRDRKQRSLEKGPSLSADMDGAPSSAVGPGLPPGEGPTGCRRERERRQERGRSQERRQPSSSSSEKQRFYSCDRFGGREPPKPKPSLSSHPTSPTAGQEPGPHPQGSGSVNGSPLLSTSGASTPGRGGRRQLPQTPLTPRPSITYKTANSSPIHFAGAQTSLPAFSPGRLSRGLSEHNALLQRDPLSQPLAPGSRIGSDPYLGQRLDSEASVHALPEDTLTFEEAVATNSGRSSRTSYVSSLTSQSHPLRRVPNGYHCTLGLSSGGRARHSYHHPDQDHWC
T5 sequence (Q02410 whole entry): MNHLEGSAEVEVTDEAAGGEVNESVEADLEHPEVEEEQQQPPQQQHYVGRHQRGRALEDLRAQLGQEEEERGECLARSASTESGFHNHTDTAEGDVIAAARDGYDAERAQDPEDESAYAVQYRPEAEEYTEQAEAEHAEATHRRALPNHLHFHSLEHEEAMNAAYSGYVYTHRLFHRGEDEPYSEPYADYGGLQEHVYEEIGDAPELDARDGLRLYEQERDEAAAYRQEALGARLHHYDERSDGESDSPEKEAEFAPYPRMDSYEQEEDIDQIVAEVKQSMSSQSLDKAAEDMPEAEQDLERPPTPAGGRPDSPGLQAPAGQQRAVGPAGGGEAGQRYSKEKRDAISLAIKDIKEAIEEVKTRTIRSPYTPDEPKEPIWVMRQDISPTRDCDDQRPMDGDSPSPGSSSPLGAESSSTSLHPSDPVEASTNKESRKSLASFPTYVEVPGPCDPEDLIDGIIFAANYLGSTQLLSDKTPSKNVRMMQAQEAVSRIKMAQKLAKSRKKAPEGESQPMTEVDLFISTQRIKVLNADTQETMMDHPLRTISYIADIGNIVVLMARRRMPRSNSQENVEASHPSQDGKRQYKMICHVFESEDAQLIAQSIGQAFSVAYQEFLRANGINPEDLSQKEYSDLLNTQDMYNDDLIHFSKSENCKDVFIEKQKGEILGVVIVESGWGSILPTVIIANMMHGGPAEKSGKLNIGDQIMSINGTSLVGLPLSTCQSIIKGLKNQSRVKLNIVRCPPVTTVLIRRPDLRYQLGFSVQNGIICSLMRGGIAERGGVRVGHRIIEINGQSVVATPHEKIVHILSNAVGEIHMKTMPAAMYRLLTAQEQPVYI

[13] = molecular target: T5, Voltage-gated N-type calcium channel alpha-1B subunit/Amyloid beta A4 precursor protein-binding family A member 1; assay type: protein assay; remark: listed apart in the source
Large T antigen = Large T antigen (Simian virus 40, UniProt P03070); assay type: functional, Betapolyomavirus macacae;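 note: Confirmatory-stage PubChem screen for compounds that inhibit SV40 T antigen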
[14] = viability of PTEN-deleted HCT116 cells – cell-based, HCT116 PTEN knockout, dose response (AID 1047); assay type: functional;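 note: HCT116 colon tumor cells with PTEN knocked out; cells exposed to compound for 60 hours before readout; potency for loss of cell viability measured by luminescence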
[15] = molecular target: T6, Short transient receptor potential channel 4 (Mus musculus, UniProt Q9QUQ5); assay: block of DAMGO-driven TRPC4 calcium entry – cell-based, HEK293 TRPC4/mu-opioid, Fluo-4 calcium, dose response (AID 434942); assay type: functional;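 note: potency of inhibitors blocking the TRPC4 calcium response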
T6 sequence (Q9QUQ5 whole entry): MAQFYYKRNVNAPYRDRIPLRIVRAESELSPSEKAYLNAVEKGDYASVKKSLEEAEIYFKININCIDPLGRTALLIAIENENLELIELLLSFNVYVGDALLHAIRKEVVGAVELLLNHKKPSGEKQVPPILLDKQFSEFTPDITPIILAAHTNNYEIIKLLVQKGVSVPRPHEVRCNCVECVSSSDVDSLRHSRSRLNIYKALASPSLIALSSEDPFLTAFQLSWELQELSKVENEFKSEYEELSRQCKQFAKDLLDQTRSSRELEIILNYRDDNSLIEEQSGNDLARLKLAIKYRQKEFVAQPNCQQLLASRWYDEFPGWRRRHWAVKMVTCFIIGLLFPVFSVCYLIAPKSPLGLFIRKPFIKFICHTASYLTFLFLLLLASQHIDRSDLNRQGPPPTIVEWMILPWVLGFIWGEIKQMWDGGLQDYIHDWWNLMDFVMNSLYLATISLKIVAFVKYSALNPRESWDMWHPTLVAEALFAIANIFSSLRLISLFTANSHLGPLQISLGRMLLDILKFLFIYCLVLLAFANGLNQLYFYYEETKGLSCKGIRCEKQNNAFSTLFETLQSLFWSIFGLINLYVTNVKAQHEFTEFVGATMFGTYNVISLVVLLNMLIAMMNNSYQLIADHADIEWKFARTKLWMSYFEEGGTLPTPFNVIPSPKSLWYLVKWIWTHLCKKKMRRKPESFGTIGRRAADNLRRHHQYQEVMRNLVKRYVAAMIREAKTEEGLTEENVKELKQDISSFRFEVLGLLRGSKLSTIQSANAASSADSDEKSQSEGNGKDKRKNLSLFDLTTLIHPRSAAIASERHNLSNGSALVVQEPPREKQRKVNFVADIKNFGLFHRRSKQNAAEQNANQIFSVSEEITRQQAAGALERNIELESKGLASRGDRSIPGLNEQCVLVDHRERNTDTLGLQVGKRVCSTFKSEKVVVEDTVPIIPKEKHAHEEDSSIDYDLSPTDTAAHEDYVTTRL

[16] = viability of HCT116 lacking mutant beta-catenin – cell-based, human colon tumor, dose response (AID 1045); assay type: functional;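 note: HCT116 colon tumor cells with beta catenin knocked out; cells exposed to compound for 60 hours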
[17] = molecular target: T7, Alkaline phosphatase, tissue-nonspecific isozyme (Homo sapiens, UniProt P05186); assay: potency against alkaline phosphatase TNAP – biochemical, luminescent, dose response, SAR follow-up (AID 1056)
T7 sequence (P05186 whole entry): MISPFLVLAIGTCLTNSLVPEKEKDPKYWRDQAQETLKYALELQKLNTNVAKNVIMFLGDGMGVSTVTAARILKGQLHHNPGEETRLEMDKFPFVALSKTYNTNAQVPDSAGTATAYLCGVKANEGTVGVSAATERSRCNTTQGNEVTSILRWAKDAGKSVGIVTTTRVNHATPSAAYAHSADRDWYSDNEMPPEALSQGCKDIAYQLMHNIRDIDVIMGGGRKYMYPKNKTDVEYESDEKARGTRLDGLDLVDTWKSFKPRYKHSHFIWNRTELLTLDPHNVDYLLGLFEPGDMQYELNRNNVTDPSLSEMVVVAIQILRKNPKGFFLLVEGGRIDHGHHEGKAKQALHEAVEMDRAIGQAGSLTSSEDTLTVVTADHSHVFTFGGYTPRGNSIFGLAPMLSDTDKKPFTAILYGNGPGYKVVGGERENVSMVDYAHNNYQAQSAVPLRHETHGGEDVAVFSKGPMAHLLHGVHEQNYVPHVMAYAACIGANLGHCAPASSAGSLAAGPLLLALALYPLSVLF

[18] = molecular target: Alkaline phosphatase, placental type (Homo sapiens, UniProt P05187); assay: human placental alkaline phosphatase inhibition – biochemical, luminescence, confirmation (AID 1512); assay type: functional
Alkaline phosphatase, placental type, sequence (P05187 whole entry): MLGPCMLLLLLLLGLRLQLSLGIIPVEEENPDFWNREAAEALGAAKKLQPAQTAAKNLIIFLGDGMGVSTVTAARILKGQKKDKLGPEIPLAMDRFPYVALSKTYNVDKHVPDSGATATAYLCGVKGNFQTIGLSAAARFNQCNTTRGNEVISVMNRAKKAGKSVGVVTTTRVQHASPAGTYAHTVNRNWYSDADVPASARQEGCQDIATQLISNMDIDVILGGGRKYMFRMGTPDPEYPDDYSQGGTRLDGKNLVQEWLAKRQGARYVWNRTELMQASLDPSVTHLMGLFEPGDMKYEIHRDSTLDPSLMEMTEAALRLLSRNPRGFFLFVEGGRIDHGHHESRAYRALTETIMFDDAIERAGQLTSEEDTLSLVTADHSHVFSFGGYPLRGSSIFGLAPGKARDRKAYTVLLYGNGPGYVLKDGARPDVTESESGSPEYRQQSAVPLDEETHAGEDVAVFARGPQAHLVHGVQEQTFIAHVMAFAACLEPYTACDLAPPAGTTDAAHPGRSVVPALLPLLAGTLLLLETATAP

[19] = molecular target: Glyceraldehyde-3-phosphate dehydrogenase (Homo sapiens, UniProt P04406)
Glyceraldehyde-3-phosphate dehydrogenase, sequence (P04406 whole entry): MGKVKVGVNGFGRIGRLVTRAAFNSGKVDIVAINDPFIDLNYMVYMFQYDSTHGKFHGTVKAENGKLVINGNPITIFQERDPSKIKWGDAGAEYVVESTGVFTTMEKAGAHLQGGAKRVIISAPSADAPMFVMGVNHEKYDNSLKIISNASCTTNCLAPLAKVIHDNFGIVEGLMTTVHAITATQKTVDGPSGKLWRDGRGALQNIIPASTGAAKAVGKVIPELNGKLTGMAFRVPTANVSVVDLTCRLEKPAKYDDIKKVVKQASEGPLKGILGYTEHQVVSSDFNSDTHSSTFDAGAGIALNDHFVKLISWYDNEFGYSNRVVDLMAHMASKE

## Cc1ccc(C2=NN(C(=O)CCl)C(c3cccs3)C2)o1 (centres undefined)
HEK293 [1]
  IC50: > 20 µM (inactive)
HEK293 [2]
  IC50: 4.05 µM (active)
HEK293 [3]
  IC50: > 20 µM (inactive)
Protein RecA
  EC50: 1.51 µM (active)
[4]
  AC50: 1.52 µM (active)
[5]
  EC50: 35.7 µM (inconclusive)
[6]
  EC50: 8.81 µM (active)
HEK293 [7]
  EC50: 8.03 µM (active)
[8]
  AC50: 6.1 µM (active)
HEK293 [9]
  IC50: 2.11 µM (active)

## Cc1cc(NC(=O)CCS(=O)(=O)c2nc(-c3ccccc3)cc(C(F)(F)F)n2)no1
HEK293 [1]
  IC50: > 20 µM (inactive)
HEK293 [2]
  IC50: 8.24 µM (inactive)
HEK293 [3]
  IC50: > 20 µM (inactive)
[6]
  EC50: > 20 µM (inactive)
HEK293 [7]
  EC50: > 20 µM (inactive)
[10]
  EC50: > 20 µM (not active)
HEK293 [9]
  IC50: 6.11 µM (active)
[11]
  EC50: 9.01 µM (active)

## Cc1cc(C)c2c(=O)n(CC(=O)NCCCN3CCN(c4ccccc4F)CC3)sc2n1
[12]
  IC50: 48.8 µM (active)
[13]
  IC50: 12.4 µM (active)
Large T antigen
  IC50: 14.3 µM (active)
[14]
  EC50: 18 µM (active)
[15]
  EC50: 0.0013 µM (active)
[16]
  EC50: 17 µM (active)

## O=C(CSc1nnc(-c2ccncc2)n1-c1ccc(Cl)cc1)c1ccc(O)c(O)c1
[17]
  IC50: 38.7 µM (active)
[18]
  IC50: 6.63 µM (active)

## CCS(=O)(=O)c1nc(NC(C)=O)n[nH]1
[17]
  IC50: 94.8 µM (active) and > 100 µM (inactive)
[19]
  IC50: > 100 µM (not active)
[18]
  IC50: > 100 µM (inactive)
